Laboratory results as given in patent US20240067657A1, “AMIDO-SUBSTITUTED PYRIDYL COMPOUNDS AND METHODS OF USE THEREOF FOR THE TREATMENT OF HERPESVIRUSES” (Merck Sharp & Dohme LLC, priority 2020, published 2024).
Read-outs that look alike come from different tables or passages of the source.

Experiments:
[1] = test system: HSV-1 Strain F in Vero or MRC5 cells; assay: Viral qPCR assay HSV-1 (V0/V1, V2/V3), EC50; type: cell-based; conditions: 10%
Method: (§1) Viral qPCR Assays (V0/V1)
(§2) MRC5 cells, Vero cells, and MeWo cells were obtained from ATCC and were maintained at 37° C./5% CO2/90% relative humidity in Minimal Essential Medium with 10% fetal bovine serum, […] L-glutamine, 100 units/ml penicillin and 100 ug/ml streptomycin. Assay plates were prepared by dispensing compounds dissolved in DMSO into wells of 384 well collagen-coated plates using an ECHO acoustic dispenser. Each compound was tested in a 10-point, serial 3-fold dilution. Controls included uninfected cells and infected cells treated only with DMSO. Assays were initiated by mixing selected cells, in suspension, with virus, and dispensing 50 μl/well infected cells to pre-plated compounds. Plates were incubated at 37° C./5% CO2/90% relative humidity for ˜72 hrs to permit genomic replication, and infected cells were lysed by the addition of an equal volume of lysis buffer (10 mM Tris-HCl, pH8, 50 mM KCl, 2 mM MgCl2, 0.45% NP-40, 0.45% Tween-20, and 100 μg/ml proteinase K). An aliquot of the lysate was transferred to a 384-well PCR plate and incubated at 56° C. for 1 hour and then at 95° C. for 10 min. Levels of a viral gene and of the cellular control, PPIA (Thermo Fisher Assay ID=Hs04194521_s1), were measured in separate 10 μL qPCR assays using TaqMan® Gene Expression Master Mix (Applied Biosystems), and an 7900HT Fast Real-Time PCR System with 384-Well Block Module. 7-point, serial 10-fold dilutions of a plasmid standard were run on each plate to generate a standard curve, and genome copies numbers were calculated by plotting experimental Ct onto linear regression of the standard curve. Viral genome copy numbers were normalized by cellular control copy number, and compound effects were normalized to the window defined by the controls. Calculated % effects were fit using a 4-parameter algorithm, and EC50 was reported.
(§3) Viral qPCR Assays (V2/V3)
as §2, with “gene” for “gene and of the cellular control, PPIA (Thermo Fisher Assay ID=Hs04194521_s1),”, “in” for “in separate”, “Compound effects on viral” for “Viral”, “number” for “numbers were normalized by cellular control copy number, and compound effects”, “reported. • HCMV: Strain AD169 Street was assayed in MRC-5 cells and was used at 0.05-0.1 pfu/cell. The assays were performed in either growth media or in the same media with 50% fetal bovine serum. Primer-probe set was Thermo Fisher Assay ID=AIFATFK. • VZV: Strain Street was maintained as an infected cell stock in MRC-5 cells. It was assayed in MeWo or MRC5 cells and was used at 0.04-0.1 pfu/cell. […]” for “reported.”

[2] = molecular target: T1, Human cytomegalovirus DNA polymerase (Human cytomegalovirus, UniProt P08546); assay: HCMV polymerase assay (AlphaLISA, IC50); type: biochemical; conditions: polymerase assay of Example 190
T1 construct: made in house; host or cells: SF21 insect cells (baculovirus vector)
T1 sequence (P08546 whole entry): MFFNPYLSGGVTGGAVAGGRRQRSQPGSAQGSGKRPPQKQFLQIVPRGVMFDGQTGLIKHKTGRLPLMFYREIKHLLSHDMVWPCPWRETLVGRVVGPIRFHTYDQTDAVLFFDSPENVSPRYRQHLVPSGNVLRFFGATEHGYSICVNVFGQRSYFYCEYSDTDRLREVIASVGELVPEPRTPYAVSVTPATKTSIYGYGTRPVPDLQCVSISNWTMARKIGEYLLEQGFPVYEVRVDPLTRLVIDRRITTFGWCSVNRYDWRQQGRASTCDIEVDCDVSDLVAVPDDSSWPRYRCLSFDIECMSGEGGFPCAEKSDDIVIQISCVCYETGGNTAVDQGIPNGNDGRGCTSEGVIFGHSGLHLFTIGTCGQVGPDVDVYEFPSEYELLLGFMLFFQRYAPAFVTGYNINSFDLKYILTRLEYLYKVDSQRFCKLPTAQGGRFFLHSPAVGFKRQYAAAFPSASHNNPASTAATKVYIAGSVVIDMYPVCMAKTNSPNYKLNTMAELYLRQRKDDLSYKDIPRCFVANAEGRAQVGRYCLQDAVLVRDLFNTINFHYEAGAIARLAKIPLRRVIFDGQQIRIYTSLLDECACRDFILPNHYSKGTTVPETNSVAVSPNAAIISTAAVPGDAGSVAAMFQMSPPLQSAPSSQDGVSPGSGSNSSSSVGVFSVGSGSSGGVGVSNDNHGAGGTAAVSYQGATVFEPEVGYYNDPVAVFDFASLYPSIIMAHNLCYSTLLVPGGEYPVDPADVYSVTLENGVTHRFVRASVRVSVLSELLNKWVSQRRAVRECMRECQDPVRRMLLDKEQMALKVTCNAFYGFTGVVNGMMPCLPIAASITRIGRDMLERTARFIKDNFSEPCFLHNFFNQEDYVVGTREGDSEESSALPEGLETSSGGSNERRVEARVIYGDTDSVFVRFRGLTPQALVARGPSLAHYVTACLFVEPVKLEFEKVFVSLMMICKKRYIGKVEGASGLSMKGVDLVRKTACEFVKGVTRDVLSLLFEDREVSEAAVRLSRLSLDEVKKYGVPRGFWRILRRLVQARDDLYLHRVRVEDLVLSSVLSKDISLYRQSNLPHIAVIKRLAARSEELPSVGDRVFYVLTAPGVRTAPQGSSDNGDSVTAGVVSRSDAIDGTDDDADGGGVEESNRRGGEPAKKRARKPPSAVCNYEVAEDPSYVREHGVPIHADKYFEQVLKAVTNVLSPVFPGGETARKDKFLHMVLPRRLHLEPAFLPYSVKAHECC
Method: (§4) Human cytomegalovirus and varicella zoster virus DNA polymerases were expressed via baculovirus vector in SF21 cells and purified. Heterodimeric nucleic acid substrate used in the herpesvirus polymerase reactions was generated by annealing a 59-mer template to a 17-mer digoxigenin-labeled primer. Polymerase (HCMV final concentration of 0.2 nM; VZV final concentration of 0.4 nM) was combined with an inhibitor compound or DMSO in assay buffer (10 mM HEPES, pH 7.5, 25 mM KCl, 25 mM NaCl, 5 mM MgCl2, 5% glycerol, 0.67 mg/ml bovine serum albuminutes, and 1 mM tris(2-carboxyethyl)phosphine), and this mixture was pre-incubated for 30 minutes at room temperature in 384-well microtiter plates. The polymerization reaction was initiated by the addition of template/primer substrate (final concentration: 1.6 nM), and dNTPs (final concentration: 24 nM dCTP, 24 nMdGTP, 16 nM dATP, 16 nM dTTP, and 0.8 nM biotin-dUTP). After 60 minutes incubation at 37° C., reactions were terminated with quench buffer (25 mM HEPES pH 7.5, 100 mM NaCl, 0.25% Tween-20, 12 mM EDTA, and 1 mg/ml bovine serum albumin). Incorporation of biotinylated UTP was detected with 2.5-5 ug/ml anti-DIG AlphaLISA acceptor beads and 5-10 ug/ml streptavidin AlphaLISA donor beads (Perkin Elmer). Compound effects were normalized to the window defined by the controls (DMSO only and pre-quenched wells), and were fit using a 4-parameter algorithm to report an IC50.

[3] = test system: HCMV Strain AD169 in MRC-5 cells; assay: Viral qPCR assay HCMV (V0/V1, V2/V3), EC50; type: cell-based; conditions: Human betaherpesvirus 5, AD169, MRC5, viral qPCR assay of Example 191; read-out: HCMV Cell (EC50)
Method: as §1, §2, §3
as §2, with “gene” for “gene and of the cellular control, PPIA (Thermo Fisher Assay ID=Hs04194521_s1),”, “in” for “in separate”, “Compound effects on viral” for “Viral”, “number” for “numbers were normalized by cellular control copy number, and compound effects”, “reported. • HCMV: Strain AD169 Street was assayed in MRC-5 cells and was used at 0.05-0.1 pfu/cell. The assays were performed in either growth media or in the same media with 50% fetal bovine serum. Primer-probe set was Thermo Fisher Assay ID=AIFATFK. • VZV: Strain Street was maintained as an infected cell stock in MRC-5 cells. It was assayed in MeWo or MRC5 cells and was used at 0.04-0.1 pfu/cell. […]” for “reported.”

[4] = molecular target: T2, varicella zoster virus DNA polymerase (Varicella-zoster virus, UniProt P09252); assay: VZV polymerase assay (AlphaLISA, IC50); type: biochemical; conditions: polymerase assay of Example 190
T2 construct: made in house; host or cells: SF21 insect cells (baculovirus vector)
T2 sequence (P09252 whole entry): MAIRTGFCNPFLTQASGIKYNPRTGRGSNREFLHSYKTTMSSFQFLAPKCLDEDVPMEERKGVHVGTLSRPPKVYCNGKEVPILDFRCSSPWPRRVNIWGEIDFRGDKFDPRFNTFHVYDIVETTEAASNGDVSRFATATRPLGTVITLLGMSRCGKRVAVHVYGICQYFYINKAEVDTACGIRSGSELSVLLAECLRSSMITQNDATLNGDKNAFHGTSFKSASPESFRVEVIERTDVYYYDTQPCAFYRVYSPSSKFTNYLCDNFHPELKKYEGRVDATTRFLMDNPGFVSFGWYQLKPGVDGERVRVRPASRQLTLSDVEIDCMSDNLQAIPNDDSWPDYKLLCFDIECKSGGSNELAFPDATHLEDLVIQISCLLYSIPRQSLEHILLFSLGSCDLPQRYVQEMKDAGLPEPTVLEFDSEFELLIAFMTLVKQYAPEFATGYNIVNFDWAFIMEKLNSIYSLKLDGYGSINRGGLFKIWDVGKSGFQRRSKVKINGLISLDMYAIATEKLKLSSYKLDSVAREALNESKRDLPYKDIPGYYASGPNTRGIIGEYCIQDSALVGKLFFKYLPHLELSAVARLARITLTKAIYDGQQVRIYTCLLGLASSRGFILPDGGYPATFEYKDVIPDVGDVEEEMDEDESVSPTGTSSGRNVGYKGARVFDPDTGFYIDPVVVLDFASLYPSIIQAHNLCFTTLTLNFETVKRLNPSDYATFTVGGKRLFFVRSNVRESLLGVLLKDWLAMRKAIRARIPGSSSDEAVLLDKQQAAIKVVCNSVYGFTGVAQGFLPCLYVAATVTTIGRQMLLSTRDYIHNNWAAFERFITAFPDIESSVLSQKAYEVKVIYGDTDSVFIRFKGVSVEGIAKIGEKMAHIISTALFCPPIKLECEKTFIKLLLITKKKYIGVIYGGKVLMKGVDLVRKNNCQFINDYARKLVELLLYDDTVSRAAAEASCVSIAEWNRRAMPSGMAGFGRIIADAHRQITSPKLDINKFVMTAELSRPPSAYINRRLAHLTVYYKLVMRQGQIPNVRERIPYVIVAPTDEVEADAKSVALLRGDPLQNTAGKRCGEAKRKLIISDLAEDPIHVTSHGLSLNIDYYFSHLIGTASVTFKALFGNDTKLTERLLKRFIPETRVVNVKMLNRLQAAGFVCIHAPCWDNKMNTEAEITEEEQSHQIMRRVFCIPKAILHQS
Method: as §4

[5] = test system: VZV in MeWo or MRC5 cells; assay: Viral qPCR assay VZV (V0/V1, V2/V3), EC50; type: cell-based; conditions: Human alphaherpesvirus 3, MRC5, MRC5 cells, 10%; read-out: VZV Cell (EC50) MRC5 10%
Method: as §1, §2, §3
as §2, with “gene” for “gene and of the cellular control, PPIA (Thermo Fisher Assay ID=Hs04194521_s1),”, “in” for “in separate”, “Compound effects on viral” for “Viral”, “number” for “numbers were normalized by cellular control copy number, and compound effects”, “reported. • HCMV: Strain AD169 Street was assayed in MRC-5 cells and was used at 0.05-0.1 pfu/cell. The assays were performed in either growth media or in the same media with 50% fetal bovine serum. Primer-probe set was Thermo Fisher Assay ID=AIFATFK. • VZV: Strain Street was maintained as an infected cell stock in MRC-5 cells. It was assayed in MeWo or MRC5 cells and was used at 0.04-0.1 pfu/cell. […]” for “reported.”

[6] = Human alphaherpesvirus 1, Vero, VERO cells, read-out: HSV1 Cell (EC50) VERO 10%
[7] = Human alphaherpesvirus 1, MRC5, MRC5 cells, read-out: HSV1 Cell (EC50) MRC5 10%

SMILES | EC50 [1, 6] [nM] | IC50 [2] [nM] | EC50 [3] [nM] | IC50 [4] [nM] | EC50 [5] [nM] | EC50 [1, 7] [nM]
O=C(NCc1ccc(Cl)cc1)c1cc(O[C@H]2CCN3C(=O)OC[C@@H]3C2)c(CC2CCCO2)cn1 (mixture of isomers) [Compound 113] | 227 | 56.6 | 357 | 18.4 | – | –
O=C(NCc1ccc(Cl)cc1)c1cc(O[C@@H]2CCN3C(=O)OC[C@H]3C2)c(-c2cn[nH]c2)cn1 (racemic) [Compound 25] | 1670 | 13.9 | 259 | 4.44 | – | –
O=C(NCc1ccc(Cl)cc1)c1cc(O[C@H]2CCN3C(=O)OC[C@@H]3C2)c(-c2ncco2)cn1 [Compound 4] | 210 | 59.1 | 292 | 20.3 | – | –
CC(=O)N1CCC(Oc2cc(C(=O)NCc3ccc(Cl)cc3)ncc2C#Cc2ccc(C)cn2)CC1 [Compound 71] | 354 | 172 | 1510 | 119 | – | –
CC(=O)N1CCC(Oc2cc(C(=O)NCc3ccc(Cl)cc3)ncc2/C=C/CC(C)O)CC1 (stereo not shown) [Compound 72] | 1110 | 68.8 | 855 | 51.8 | – | –
CC(=O)N1CCC(Oc2cc(C(=O)NCc3ccc(Cl)cc3)ncc2/C=C/CO)CC1 [Compound 73] | 842 | 93.2 | 1780 | 45 | – | –
COC/C=C/c1cnc(C(=O)NCc2ccc(Cl)cc2)cc1OC1CCN(C(C)=O)CC1 [Compound 74] | 280 | 83 | 1440 | 35 | – | –
CC(=O)N1CCC(Oc2cc(C(=O)NCc3ccc(Cl)cc3)ncc2C#Cc2cc(C)ccn2)CC1 [Compound 76] | 624 | 209 | 1230 | 165 | – | –
O=C(NCc1ccc(Cl)cc1)c1cc(O[C@H]2CCN3C(=O)OC[C@@H]3C2)c(CO)cn1 [Compound 98] | 1520 | 45.6 | 509 | 27.9 | – | –
Cn1cc(-c2cnc(C(=O)N3CCCC3c3ccc(Cl)cc3)cc2O[C@H]2CCN3C(=O)OC[C@@H]3C2)cn1 (stereo partly shown) [Compound 100] | – | 983 | – | 426 | – | –
CC(=O)N1CCC(Oc2cc(C)nc(C(=O)NCc3ccc(Cl)cc3)c2)CC1 [Compound 101] | – | 2020 | – | 1300 | – | –
Cc1ncc(-c2cc(O[C@H]3CCN4C(=O)OC[C@@H]4C3)cc(C(=O)NCc3ccc(Cl)cc3)n2)s1 [Compound 102] | 427 | 199 | 8400 | 117 | – | –
Cc1cnc(-c2cnc(C(=O)NCc3ccc(Cl)cc3)cc2OC(C)C)s1 [Compound 103] | 3000 | 2310 | 19400 | 956 | – | –
N#Cc1cc(O[C@H]2CCN3C(=O)OC[C@@H]3C2)cc(C(=O)NCc2ccc(Cl)cc2)n1 [Compound 128] | – | 169 | 1780 | – | 5340 | 8330
O=C(NCc1ccc(Cl)cc1)c1cc(O[C@H]2CCN3C(=O)OC[C@@H]3C2)c(O)cn1 [Compound 146] | 6220 | 20.1 | 1140 | 8.04 | – | –
O=C(NCc1ccc(Cl)cc1)c1cc(O[C@H]2CCN3C(=O)OC[C@@H]3C2)c(-c2cnc(CO)o2)cn1 [Compound 148b] | – | 1.89 | 102 | – | 220 | 116
O=C(NCc1ccc(Cl)cc1)c1cc(O[C@H]2CCN3C(=O)OC[C@@H]3C2)cc(CO)n1 [Compound 152] | 10700 | 201 | 1890 | 134 | – | –
CC(=O)N1CCC(Oc2cc(C(=O)NCc3ccc(Cl)cc3)ncc2-c2nnc(C)o2)CC1 [Compound 153] | – | 66.2 | 478 | – | 913 | 636
Cc1cnc(C(=O)NCc2ccc(Cl)cc2)cc1O[C@H]1CCN2C(=O)CC[C@@H]2C1 [Compound 169] | 594 | 46.7 | 1490 | 5.45 | – | –
C[C@@H]1CN(C)CCN1c1cc(C(=O)NCc2ccc(C#N)cc2)ncc1C#N [Compound 172] | – | 128 | 419 | – | 4060 | 4190
CN1CCN(c2cc(C(=O)NCc3ccc(Cl)cc3)ncc2C#N)[C@H](CF)C1 [Compound 173] | – | 12.3 | 279 | – | 682 | 833
CN1CCN(c2cc(C(=O)NCc3ccc(C#N)cc3)ncc2C#N)[C@H](CF)C1 [Compound 174] | – | 36.5 | 472 | – | 1190 | 966
O=C(c1cc(O[C@H]2CCN3C(=O)OC[C@@H]3C2)c(-c2cnn(C(F)F)c2)cn1)N(CO)Cc1ccc(Cl)cc1 [Compound 180] | – | 29.2 | 183 | – | 265 | 176
O=C(OCN(Cc1ccc(Cl)cc1)C(=O)c1cc(O[C@H]2CCN3C(=O)OC[C@@H]3C2)c(-c2cnn(C(F)F)c2)cn1)C1CCOCC1 [Compound 182] | – | 227 | 148 | – | 213 | 105
CN1CCC(N2CCC(C(=O)OCN(Cc3ccc(Cl)cc3)C(=O)c3cc(O[C@H]4CCN5C(=O)OC[C@@H]5C4)c(-c4cnn(C(F)F)c4)cn3)CC2)CC1 [Compound 184] | – | 894 | 519 | – | 314 | 173
CC(C)[C@H](N)C(=O)OCN(Cc1ccc(Cl)cc1)C(=O)c1cc(O[C@H]2CCN3C(=O)OC[C@@H]3C2)c(-c2cnn(C(F)F)c2)cn1 [Compound 185] | – | 25.2 | 126 | – | 263 | 152
